Experiments:
[1] = molecular target: RNA-directed RNA polymerase (Hepacivirus hominis, UniProt Q8JXU8); assay: Inhibition of NS5B polymerase in wild type HCV genotype 1b infected in human Huh7 replicon cells after 5 days by RT-PCR assay
[2] = Inhibition of NS5B polymerase in wild type HCV genotype 1b infected in human Huh7 replicon cells after 5 days by RT-PCR assay

Row | EC50 [2] [µM] | SMILES | EC50 [1] [µM]
1 |  | C[C@@]1(O)[C@H](O)[C@@H](CO)O[C@H]1n1ccc(N)nc1=O | 2.8
2 | > 10 | Nc1nc2c(ncn2[C@@H]2O[C@H](CO)[C@@H](O)[C@]2(F)Br)c(=O)[nH]1 | 
3 |  | Nc1ccn([C@@H]2O[C@H](CO)[C@@H](O)[C@]2(F)Br)c(=O)n1 | 4
4 |  | Nc1ncnc2c1ncn2[C@@H]1O[C@H](CO)[C@H](O)[C@@]1(F)Br | > 10
5 |  | CC(C)OC(=O)[C@H](C)NP(=O)(OC[C@H]1O[C@@H](n2ccc(N)nc2=O)[C@](F)(Br)[C@H]1O)Oc1ccccc1 (stereo not given in full) | 0.6
